In patent publication US20260365670A1, “EGFR INHIBITORS AND USES THEREOF” (DIZAL (JIANGSU) PHARMACEUTICAL CO., LTD., priority 2022, published 2026):
Where two headings read alike, the source gives them in different places.

How the values were obtained:
[1] = target: T1, EGFR wild type (Homo sapiens, UniProt P00533); assay: Inhibition of EGFR wild type biochemical enzymatic activity (HTRF); settings: EGFR WT, 1 mM ATP, 1 h, room temperature, read-out: IC50 (nM) @WT
T1 construct: purchased Carna Bio
Summary of the method: (§1)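 Following 1 h at room temperature with titrated compound, 1 mM ATP and 1 μM biotin-TK peptide (Mg2+/Mn2+, CHAPS, DTT, 0.5% DMSO buffer), EDTA-containing detection reagent terminated each enzyme reaction. Time-resolved fluorescence (ex 320, em 665/615 nm) ratio tracked activity. IC50 values came from four-parameter fits.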

[2] = target: T2, EGFR L858R (Homo sapiens, UniProt P00533, L858R); assay: Inhibition of EGFR L858R biochemical enzymatic activity (HTRF); settings: 1 mM ATP, 1 h, room temperature, read-out: IC50 (nM) @L858R
T2 construct: purchased Carna Bio
T2 sequence (P00533 25-1210 L858R): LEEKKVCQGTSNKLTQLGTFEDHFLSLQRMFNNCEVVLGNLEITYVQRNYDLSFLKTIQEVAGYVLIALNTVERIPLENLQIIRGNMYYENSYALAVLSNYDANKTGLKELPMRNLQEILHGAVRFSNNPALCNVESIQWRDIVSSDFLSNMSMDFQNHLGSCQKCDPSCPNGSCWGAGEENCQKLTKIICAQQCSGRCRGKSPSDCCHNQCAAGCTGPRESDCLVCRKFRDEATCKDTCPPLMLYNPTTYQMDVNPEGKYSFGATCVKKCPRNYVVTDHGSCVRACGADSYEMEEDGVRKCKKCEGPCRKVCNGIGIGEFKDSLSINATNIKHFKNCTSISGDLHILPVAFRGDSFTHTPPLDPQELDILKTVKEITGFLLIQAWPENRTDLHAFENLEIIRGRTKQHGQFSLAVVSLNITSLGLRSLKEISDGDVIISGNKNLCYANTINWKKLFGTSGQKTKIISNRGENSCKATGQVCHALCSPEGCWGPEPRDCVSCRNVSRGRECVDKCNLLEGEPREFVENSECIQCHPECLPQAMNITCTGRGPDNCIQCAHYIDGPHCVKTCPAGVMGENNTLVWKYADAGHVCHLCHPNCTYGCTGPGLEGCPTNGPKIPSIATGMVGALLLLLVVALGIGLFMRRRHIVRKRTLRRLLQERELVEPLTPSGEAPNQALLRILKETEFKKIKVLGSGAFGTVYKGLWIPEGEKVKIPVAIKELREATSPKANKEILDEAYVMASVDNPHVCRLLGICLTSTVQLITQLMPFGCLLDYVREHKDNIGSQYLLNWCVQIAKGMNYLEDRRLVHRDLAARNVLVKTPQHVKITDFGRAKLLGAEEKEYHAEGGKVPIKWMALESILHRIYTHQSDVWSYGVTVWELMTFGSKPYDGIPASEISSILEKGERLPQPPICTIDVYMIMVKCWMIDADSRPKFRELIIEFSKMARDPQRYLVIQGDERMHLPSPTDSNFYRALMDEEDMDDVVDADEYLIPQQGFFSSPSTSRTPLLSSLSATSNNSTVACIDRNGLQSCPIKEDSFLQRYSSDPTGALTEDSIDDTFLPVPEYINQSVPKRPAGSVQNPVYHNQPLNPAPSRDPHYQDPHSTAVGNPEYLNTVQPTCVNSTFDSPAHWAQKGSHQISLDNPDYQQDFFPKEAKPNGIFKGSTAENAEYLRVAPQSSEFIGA
Summary of the method: as §1

[3] = target: T3, EGFR L858R/T790M (Homo sapiens, UniProt P00533, L858R/T790M); assay: Inhibition of EGFR L858R/T790M biochemical enzymatic activity (HTRF); settings: EGFR L858R-T790M, 1 mM ATP, 1 h, room temperature, read-out: IC50 (nM) @L858R-T790M
T3 construct: purchased Carna Bio
Summary of the method: as §1

[4] = target: T4, EGFR Exon19Del (Homo sapiens, UniProt P00533, DEL746-750); assay: Inhibition of EGFR Exon19Del biochemical enzymatic activity (HTRF); settings: EGFR Del19, 1 mM ATP, 1 h, room temperature, read-out: IC50 @Del19
T4 construct: purchased Carna Bio
T4 sequence (P00533 with tags, fused parts or gaps DEL746-750 limits assumed): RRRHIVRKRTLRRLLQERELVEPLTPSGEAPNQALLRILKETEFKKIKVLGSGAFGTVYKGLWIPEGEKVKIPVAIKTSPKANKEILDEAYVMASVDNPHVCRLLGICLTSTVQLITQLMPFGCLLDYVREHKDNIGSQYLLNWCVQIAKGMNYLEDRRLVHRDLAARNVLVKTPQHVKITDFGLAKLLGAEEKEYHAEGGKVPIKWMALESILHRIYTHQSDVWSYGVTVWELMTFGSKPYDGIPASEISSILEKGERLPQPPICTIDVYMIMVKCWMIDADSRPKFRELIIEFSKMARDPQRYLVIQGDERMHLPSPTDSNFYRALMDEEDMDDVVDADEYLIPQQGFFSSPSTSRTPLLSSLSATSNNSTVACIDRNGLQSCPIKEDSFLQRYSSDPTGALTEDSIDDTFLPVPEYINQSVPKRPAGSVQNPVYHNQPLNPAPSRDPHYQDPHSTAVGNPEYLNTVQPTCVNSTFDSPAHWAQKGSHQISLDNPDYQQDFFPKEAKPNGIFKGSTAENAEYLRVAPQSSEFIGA
Summary of the method: as §1

[5] = target: T5, EGFR Exon19Del/T790M (Homo sapiens, UniProt P00533, DEL746-750/T790M); assay: Inhibition of EGFR Exon19Del/T790M biochemical enzymatic activity (HTRF); settings: EGFR Del19-T790M, 1 mM ATP, 1 h, room temperature, read-out: IC50 (nM) @Del19-T790M
T5 construct: purchased Carna Bio
T5 sequence (P00533 with tags, fused parts or gaps DEL746-750/T790M limits assumed): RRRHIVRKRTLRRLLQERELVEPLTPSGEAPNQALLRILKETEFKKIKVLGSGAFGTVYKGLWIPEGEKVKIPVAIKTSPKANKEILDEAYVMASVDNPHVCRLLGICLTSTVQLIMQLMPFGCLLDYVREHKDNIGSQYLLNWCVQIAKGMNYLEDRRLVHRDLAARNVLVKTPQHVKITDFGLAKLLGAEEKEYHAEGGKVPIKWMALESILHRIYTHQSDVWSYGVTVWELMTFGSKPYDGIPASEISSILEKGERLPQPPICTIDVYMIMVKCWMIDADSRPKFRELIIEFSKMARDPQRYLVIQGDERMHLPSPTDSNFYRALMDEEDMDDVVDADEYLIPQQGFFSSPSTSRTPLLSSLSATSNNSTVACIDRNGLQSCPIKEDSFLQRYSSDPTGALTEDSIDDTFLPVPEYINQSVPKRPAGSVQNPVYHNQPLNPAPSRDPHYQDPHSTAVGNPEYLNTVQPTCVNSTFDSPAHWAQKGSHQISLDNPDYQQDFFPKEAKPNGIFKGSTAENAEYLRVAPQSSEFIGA
Summary of the method: as §1

[6] = target: T6, EGFR[T790M/C797S/L858R] (Homo sapiens, UniProt P00533, C797S/L858R/T790M); assay: Inhibition of EGFR[T790M/C797S/L858R] biochemical enzymatic activity (HTRF); settings: EGFR T790M-C797S-L858R, 1 mM ATP, 1 h, room temperature, read-out: IC50 (nM) @T790M- C797S - L858R
T6 construct: purchased Carna Bio
T6 sequence (P00533 25-1210 T790M/C797S/L858R): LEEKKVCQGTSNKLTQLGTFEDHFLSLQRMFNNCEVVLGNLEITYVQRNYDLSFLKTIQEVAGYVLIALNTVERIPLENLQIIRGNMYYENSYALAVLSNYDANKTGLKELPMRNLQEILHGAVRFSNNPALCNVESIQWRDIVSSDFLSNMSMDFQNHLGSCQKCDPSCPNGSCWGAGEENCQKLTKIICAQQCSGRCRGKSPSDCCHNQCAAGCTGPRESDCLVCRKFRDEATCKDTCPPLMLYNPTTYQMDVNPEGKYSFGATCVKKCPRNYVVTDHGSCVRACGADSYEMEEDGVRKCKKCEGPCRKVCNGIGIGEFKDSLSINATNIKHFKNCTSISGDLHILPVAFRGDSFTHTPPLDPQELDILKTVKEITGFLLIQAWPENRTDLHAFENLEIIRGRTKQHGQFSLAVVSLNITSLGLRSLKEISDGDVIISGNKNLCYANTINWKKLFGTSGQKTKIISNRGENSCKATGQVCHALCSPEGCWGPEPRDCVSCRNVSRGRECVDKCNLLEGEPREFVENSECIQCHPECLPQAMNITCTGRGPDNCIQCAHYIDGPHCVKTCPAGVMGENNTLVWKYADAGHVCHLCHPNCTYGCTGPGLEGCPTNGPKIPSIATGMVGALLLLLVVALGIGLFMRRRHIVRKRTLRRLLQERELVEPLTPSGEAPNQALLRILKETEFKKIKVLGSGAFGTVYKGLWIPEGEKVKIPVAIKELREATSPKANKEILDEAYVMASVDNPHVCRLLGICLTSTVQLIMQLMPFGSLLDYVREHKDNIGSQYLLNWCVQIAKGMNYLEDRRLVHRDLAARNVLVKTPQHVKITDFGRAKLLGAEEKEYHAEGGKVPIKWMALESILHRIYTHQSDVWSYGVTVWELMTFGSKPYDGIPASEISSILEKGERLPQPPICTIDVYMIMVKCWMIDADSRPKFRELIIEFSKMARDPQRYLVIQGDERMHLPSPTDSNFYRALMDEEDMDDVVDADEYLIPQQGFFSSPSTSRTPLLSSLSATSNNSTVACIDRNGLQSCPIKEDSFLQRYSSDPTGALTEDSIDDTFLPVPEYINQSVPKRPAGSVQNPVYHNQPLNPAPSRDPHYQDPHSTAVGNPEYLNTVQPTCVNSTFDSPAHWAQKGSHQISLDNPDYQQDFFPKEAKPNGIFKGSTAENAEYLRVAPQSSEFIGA
Summary of the method: as §1

[7] = target: T7, EGFR[T790M/C797S/d746-750] (Homo sapiens, UniProt P00533, C797S/DEL746-750/T790M); assay: Inhibition of EGFR[T790M/C797S/d746-750] biochemical enzymatic activity (HTRF); settings: EGFR T790M-C797S-Del19, 1 mM ATP, 1 h, room temperature, read-out: IC50 (nM) @T790M - C797S - Del19
T7 construct: purchased Carna Bio
T7 sequence (P00533 with tags, fused parts or gaps DEL746-750/T790M/C797S limits assumed): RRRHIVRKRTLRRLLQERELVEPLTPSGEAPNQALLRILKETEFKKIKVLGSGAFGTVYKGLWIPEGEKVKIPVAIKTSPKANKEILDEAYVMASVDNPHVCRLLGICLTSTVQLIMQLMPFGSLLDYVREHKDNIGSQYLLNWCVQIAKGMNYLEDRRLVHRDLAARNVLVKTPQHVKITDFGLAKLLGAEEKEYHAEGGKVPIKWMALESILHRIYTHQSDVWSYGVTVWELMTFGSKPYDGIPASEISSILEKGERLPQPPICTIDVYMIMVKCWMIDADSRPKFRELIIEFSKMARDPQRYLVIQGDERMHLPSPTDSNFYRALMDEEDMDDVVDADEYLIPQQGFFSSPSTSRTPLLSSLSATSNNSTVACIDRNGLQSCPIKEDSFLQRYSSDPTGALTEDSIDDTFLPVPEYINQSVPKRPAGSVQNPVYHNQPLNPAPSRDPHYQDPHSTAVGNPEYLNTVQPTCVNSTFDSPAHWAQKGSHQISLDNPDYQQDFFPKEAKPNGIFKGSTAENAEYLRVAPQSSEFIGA
Summary of the method: as §1

[8] = target: T8, EGFR (d746-750 C797S) (Homo sapiens, UniProt P00533, C797S/DEL746-750); assay: Inhibition of EGFR (d746-750 C797S) biochemical enzymatic activity (HTRF); settings: EGFR Del19-C797S, 1 mM ATP, 1 h, room temperature, read-out: IC50 (nM) @Del19-C797S
T8 construct: purchased signalchem
T8 sequence (P00533 with tags, fused parts or gaps DEL746-750/C797S limits assumed): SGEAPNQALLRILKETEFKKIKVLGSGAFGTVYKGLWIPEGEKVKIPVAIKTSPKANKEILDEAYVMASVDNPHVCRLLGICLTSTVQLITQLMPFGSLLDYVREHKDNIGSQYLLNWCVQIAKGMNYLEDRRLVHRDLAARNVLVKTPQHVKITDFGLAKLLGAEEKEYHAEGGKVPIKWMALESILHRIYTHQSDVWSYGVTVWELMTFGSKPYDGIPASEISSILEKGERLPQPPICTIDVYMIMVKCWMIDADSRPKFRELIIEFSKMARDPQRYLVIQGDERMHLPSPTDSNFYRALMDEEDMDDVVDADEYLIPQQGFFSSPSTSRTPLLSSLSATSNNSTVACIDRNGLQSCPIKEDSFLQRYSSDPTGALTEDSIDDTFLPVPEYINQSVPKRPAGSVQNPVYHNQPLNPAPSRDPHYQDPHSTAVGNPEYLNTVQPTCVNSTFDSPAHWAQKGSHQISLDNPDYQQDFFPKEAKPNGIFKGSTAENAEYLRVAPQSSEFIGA
Summary of the method: as §1

[9] = target: T9, EGFR (C797S L858R) (Homo sapiens, UniProt P00533, C797S/L858R); assay: Inhibition of EGFR (C797S L858R) biochemical enzymatic activity (HTRF); settings: EGFR L858-C797S, 1 mM ATP, 1 h, room temperature, read-out: IC50 (nM) @L858-C797S
T9 construct: purchased signalchem
Summary of the method: as §1

[10] = system: Ba/F3 cells expressing EGFR mutations; assay: Cell proliferation assay, Ba/F3 cells expressing EGFR mutations (CellTiter-Glo, 72 hours); format: cell-based; settings: CellTiter-Glo
Summary of the method: (§2)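 Growth over 72 h was quantified by CellTiter-Glo luminescence, normalised as (G3 − G0)/(DMSO G3 − G0), for PC-9 cells seeded at 500/well and EGFR-mutant Ba/F3 cells at 5000/well in RPMI1640. Compound concentration series added after overnight incubation; GI50 obtained from best-fit curves.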

[11] = system: PC-9; assay: Cell proliferation assay, PC-9 cells (CellTiter-Glo, 72 hours); format: cell-based; settings: PC9 cells, CellTiter-Glo, read-out: PC9 GI50
Summary of the method: as §2

[12] = system: A-431; assay: Cell proliferation GI50, A-431 cells (Table 6); format: cell-based
[13] = Mus musculus, BaF3, 72 h, BaF3 cells, EGFR DEL19-C797S, read-out: DEL19-C797S/BaF3 GI50
[14] = Mus musculus, BaF3, 72 h, BaF3 cells, EGFR DEL19-T790-C797S, read-out: DEL19-T790-C797S/BaF3 GI50
[15] = Mus musculus, BaF3, 72 h, BaF3 cells, EGFR L858R, read-out: L858R/BaF3 GI50
[16] = Mus musculus, BaF3, 72 h, BaF3 cells, EGFR L858R-C797S, read-out: L858R-C797S/BaF3 GI50
[17] = Mus musculus, BaF3, 72 h, BaF3 cells, EGFR L858R-T790-C797S, read-out: L858R-T790-C797S/BaF3 GI50
[18] = Mus musculus, BaF3, 72 h, BaF3 cells, EGFR L858R-T790M, read-out: L858R-T790M/BaF3 GI50
[19] = Mus musculus, BaF3, 72 h, EGFR DEL19-T790M, read-out: DEL19-T790M GI50
[20] = Homo sapiens, A-431, A-431 cells
[21] = BaF3 cells, EGFR DEL19-C797S, read-out: DEL19-C797S/BaF3 GI50
[22] = BaF3 cells, EGFR DEL19-T790-C797S, read-out: DEL19-T790-C797S/BaF3 GI50
[23] = BaF3 cells, EGFR L858R, read-out: L858R/BaF3 GI50
[24] = BaF3 cells, EGFR L858R-C797S, read-out: L858R-C797S/BaF3 GI50
[25] = BaF3 cells, EGFR L858R-T790-C797S, read-out: L858R-T790-C797S/BaF3 GI50
[26] = BaF3 cells, EGFR L858R-T790M, read-out: L858R-T790M/BaF3 GI50
[27] = EGFR DEL19-T790M, read-out: DEL19-T790M GI50

Structure (SMILES)	IC50 [1] [nM]	IC50 [2] [nM]	IC50 [3] [nM]	IC50 [4] [nM]	IC50 [5] [nM]	IC50 [6] [nM]	IC50 [7] [nM]	IC50 [8] [nM]	IC50 [9] [nM]	GI50 [10, 13] [nM]	GI50 [10, 14] [nM]	GI50 [10, 15] [nM]	GI50 [10, 16] [nM]	GI50 [10, 17] [nM]	GI50 [10, 18] [nM]	GI50 [10, 19] [nM]	GI50 ([11]; Homo sapiens, PC-9, 72 h) [nM]	GI50 [12, 20] [nM]	GI50 [10, 21] [nM]	GI50 [10, 22] [nM]	also measured
CCN1CCOc2c(cnn2C)-c2cc(cn(C)c2=O)C(=O)Nc2nc3ccccc3n2C(C)C1 (stereo not drawn) [Example A6, 10-Ethyl-5,12,26-trimethyl-7-oxa-4,5,10,13,20,22,26-heptaazapentacyclo[22.3.1.0^{2,6}.0^{13,21}.0^{14,19}]octacosa-1(28),2(6),3,14,16,18,20,24-octaene-23,27-dione]	> 5000	> 5000	> 5000	1670	1530	> 5000	1230	1870	> 5000	204	1050	1310	919	1540	795	968	403	1780	–	–	–
CN(C)C1CN(c2ccc3nc4n(c3c2)C23CCC(CN(CCOc5c(cnn5C)-c5cc(cn(C)c5=O)C(=O)N4)C2)C3)CC1F (single isomer, unassigned) [Example A84C, 15,21-Dimethyl-5-[4-fluoro-3-(N,N-dimethylamino)pyrrolidinyl]-23-oxa-2,9,11,15,20,21,26-heptaazaheptacyclo[24.4.1.1^{1,28}.1^{13,17}.0^{2,10}.0^{3,8}.0^{18,22}]tritriaconta-3,5,7,9,13,17(33),18(22),19-octaene-12,16-dione]	57	6.7	5	2.6	3.4	3.5	2.5	1.4	4.8	–	–	–	–	–	–	–	–	–	0.72	2.1	GI50 [10, 23]: 2.1 nM; GI50 [10, 24]: 3.9 nM; GI50 [10, 25]: 6 nM; GI50 [10, 26]: 12 nM; GI50 [10, 27]: 2.7 nM; GI50 [11]: 6.6 nM; GI50 ([12]; A-431 cells): 727 nM
C[C@@H]1CCCOc2c(cnn2C)-c2cc(cn(C)c2=O)C(=O)Nc2nc3ccc(N4CC5(CCN(C)CC5(F)F)C4)cc3n2C1 [Example A56]	501	35	32	9.1	17	19	16	5.5	22	3.4	11	12	12	10	26	17	52	436	–	–	–
Cn1ncc2c1OCCN1CC3CCC(CC3)(C1)n1c(nc3ccc(N4CCOCC4)cc31)NC(=O)c1cc-2c(=O)n(C)c1 [Example A74, 15,21-Dimethyl-5-(morpholin-4-yl)-23-oxa-2,9,11,15,20,21,26-heptaazaheptacyclo[26.2.2.1^{1,26}.1^{13,17}.0^{2,10}.0^{3,8}.0^{18,22}]tetratriaconta-3,5,7,9,13,17(34),18(22),19-octaene-12,16-dione]	> 5000	707	81	24	8.6	367	6.8	23	573	4.5	40	41	41	60	104	37	84	2370	–	–	–

The next lines start with results.

IC50 [1] [nM]	IC50 [2] [nM]	IC50 [3] [nM]	IC50 [4] [nM]	IC50 [5] [nM]	IC50 [6] [nM]	IC50 [7] [nM]	IC50 [8] [nM]	IC50 [9] [nM]	GI50 [10, 13] [nM]	GI50 [10, 14] [nM]	GI50 [10, 15] [nM]	GI50 [10, 16] [nM]	GI50 [10, 17] [nM]	GI50 [10, 18] [nM]	GI50 [10, 19] [nM]	GI50 ([11]; Homo sapiens, PC-9, 72 h) [nM]	GI50 [12, 20] [nM]	GI50 [10, 21] [nM]	GI50 [10, 22] [nM]	Structure (SMILES)	also measured
> 5000	2500	3520	97	25	2950	26	120	1760	27	56	142	160	129	535	78	144	6000	–	–	Cn1ncc2c1OCCN1CC3CCC(CC3)(C1)n1c(nc3ccccc31)NC(=O)c1cc-2c(=O)n(C)c1 [Example A100, 15,21-Dimethyl-23-oxa-2,9,11,15,20,21,26-heptaazaheptacyclo[26.2.2.1^{1,26}.1^{13,17}.0^{2,10}.0^{3,8}.0^{18,22}]tetratriaconta-3,5,7,9,13,17(34),18(22),19-octaene-12,16-dione]	–
> 5000	4740	> 5000	830	> 5000	> 5000	> 5000	1560	> 5000	–	–	–	–	–	–	–	–	–	114	254	Cn1ncc2c1OCCN1CC3CCC(C3)(C1)n1c(nc3ccc(N4CCC(N5CC(F)C5)C4)cc31)NC(=O)c1cc-2c(=O)n(C)c1 (single isomer, unassigned) [Example A94A, 5-[3-(3-Fluoroazetidin-1-yl)pyrrolidin-1-yl]-15,21-dimethyl-23-oxa-2,9,11,15,20,21,26-heptaazaheptacyclo[24.4.1.1^{1,28}.1^{13,17}.0^{2,10}.0^{3,8}.0^{18,22}]tritriaconta-3,5,7,9,13,17(33),18(22),19-octaene-12,16-dione]	GI50 [10, 23]: 323 nM; GI50 [10, 24]: 284 nM; GI50 [10, 25]: 539 nM; GI50 [10, 26]: 944 nM; GI50 [10, 27]: 209 nM; GI50 [11]: 981 nM; GI50 ([12]; A-431 cells): 1660 nM
20	3	2.7	1.8	1.8	2.1	2	0.79	1.9	–	–	–	–	–	–	–	–	–	0.63	1.1	CCN1CCN(c2ccc3nc4n(c3c2)C23CCC(CN(CCOc5c(cnn5C)-c5cc(cn(C)c5=O)C(=O)N4)C2)C3)CC1 (single isomer, unassigned) [Example A107B]	GI50 [10, 23]: 1 nM; GI50 [10, 24]: 2.4 nM; GI50 [10, 25]: 1.5 nM; GI50 [10, 26]: 4.1 nM; GI50 [10, 27]: 1.5 nM; GI50 [11]: 5.2 nM; GI50 ([12]; A-431 cells): 267 nM
